Legend:
HeLa cells [1] = test: MTS cell viability of HeLa cells treated with anticancer drug with or without AS-7 (48 hours); type: cell-based, human; conditions: for Dose Reduction Index (DRI), combination of AS-7 with bortezomib: CalcuSyn
Procedure: HeLa cells were seeded in a 96 well tissue culture plate (2000 cells per well). The compounds, 10 μM AS-7 and bortezomib (BioVision, Inc., Milpitas, Calif.) at the concentrations indicated in FIG. 1, were added the following day. AS-7 was prepared according to the Ugi reaction by combination of the four components: isocyanide (III), m-cyanobenzaldehyde (IV), 2-benzoylbenzoic acid (V), and histamine (VI) in refluxing methanol (Ref. http://www.occhem.com/synthesis/2561 2.html). The Medicinal Chemistry unit of Southern Research Institute (2000 Ninth Avenue South Birmingham, Ala. 35205) was contracted by a fee for service agreement to synthesize AS-7.
After 48 hours, MTS (3-(4,5-dimethylthiazol-2-yl)-5-(3-carboxymethoxyphenyl)-2-(4-sulfophenyl)-2H-tetrazolium) was added and absorbance was measured at 490 nm. […] Values in FIG. 1 are relative to controls that contained only the vehicle in which the drugs were dissolved. Vehicle had no effect on cell viability. Error bars in FIG. 1 are not visible if they are smaller than the symbols. […]
(§1) HeLa cells were seeded in a 96 well tissue culture plate (2000 cells per well). The compounds, 10 μM AS-7 and bortezomib at the concentrations indicated in FIG. 9 were added the following day. After 48 hours, MTS was added and absorbance was measured at 490 nm. […] Values are relative to controls that contained only the vehicle in which the drugs were dissolved. Vehicle had no effect on cell viability.

[2] = test system: Multiple myeloma cells (RPMI 8226); test: MTS cell viability of multiple myeloma cells treated with bortezomib with or without AS-7; type: cell-based
Procedure: Multiple myeloma cells (RPMI 8226) were seeded in a 96 well tissue culture plate (2000 cells per well). The compounds, 10 μM AS-7 and bortezomib at the concentrations indicated in […], were added the following day. AS-7 was prepared as described in Example I above. After 48 hours, MTS was added and absorbance was measured at 490 nm. […] Values in FIG. 2 are relative controls that contained only the vehicle in which the drugs were dissolved. Vehicle had no effect on cell viability. Error bars in FIG. 2 are not visible if they are smaller than the symbols.

[3] = test system: ovarian tumor derived IGROV cells; test: Crystal violet cell viability of ovarian IGROV cells, bortezomib with or without AS-7 (72 hours); type: cell-based; conditions: 10 μM AS-7
Procedure: Ovarian tumor-derived cell lines, IGROV and A2780, were seeded in a 96 well tissue culture plate (2000 cells per well). The compounds, 10 μM AS-7 and bortezomib (BioVision, Inc., Milpitas, Calif.) at the concentrations indicated in the figures, were added the following day. AS-7 was prepared as described in Example I above. […] Values are relative to cells that with the vehicle in which the drugs were dissolved. Vehicle had no effect on cell viability. Error bars in FIG. 6 and FIG. 7 are not shown if they are smaller than the symbols.

Melanoma A2620 cells = test: Crystal violet cell viability of melanoma A2620 cells, bortezomib with or without AS-7 (72 hours); type: cell-based, human; conditions: 10 μM AS-7
Procedure: as §1, with “Melanoma A2620 cells” for “HeLa cells”, “FIG. 8” for “FIG. 9”, “day.” for “day. After 48 hours, MTS was added and absorbance was measured at 490 nm.”

T47D cells = test: MTS cell viability of breast cancer T47D cells, bortezomib with or without AS-7; type: cell-based, human; conditions: 10 μM AS-7, data not shown
Procedure: (§2) Breast cancer derived cell lines, T47D and 159C, were seeded in a 96 well tissue culture plate (2000 cells per well). The significance of these two lines of breast cancer derived cell lines is that the T47D cells positive for three markers used to optimize the chemotherapeutic treatment, namely HER2 receptor, estrogen receptor, and progesterone receptor. By contrast to the T47D cells, the 159C cells are negative for the three markers. The compounds, 10 μM AS-7 and a range of bortezomib (BioVision, Inc., Milpitas, Calif.) concentrations were added the following day. After 48 hours, MTS was added and absorbance was measured at 490 nm.

159C cells = test: MTS cell viability of breast cancer 159C cells, bortezomib with or without AS-7; type: cell-based; conditions: 10 μM AS-7, data not shown
Procedure: as §2

breast T47D cells = test: FACS cell cycle analysis after propidium iodide staining of breast T47D cells; type: cell-based, human; conditions: 10 μM AS-7
Procedure: FIG. 16 illustrates that AS-7 evokes accumulation of breast T47D cells in the G0-G1 phase of the cell cycle. T47D cells were harvested one, two, or three days after treatment with or without AS-7, stained with propidium iodide and subjected to analysis by FACS (Fluorescence Activated Cell Sorter).
A single addition of 10 μM AS-7 for 1 day to 7 or more days was sufficient to evoke accumulation in the Go-G1 phase of the cell cycle (FIGS. 15 and 16) (data not shown). […] HeLa cells were treated with nocodazole (100 ng/ml) for 12 h which evoked accumulation of rounded, loosely attached cells in mitosis. The mitotic cells were harvested and treated with or without 10 μM AS-7 in the absence of nocodazole (Released, 16 hours).

[4] = Solubility in aqueous solutions; type: physicochemical
Source text: The ubiquitin-proteasome sensitizer compound and/or the ubiquitin-proteasome inhibitor compounds utilized in the method provided herein may also be modified by appending appropriate functionalities to enhance selective biological properties. Such modifications are known in the art and include those which increase biological penetration into a given biological system (e.g., blood, lymphatic system, central nervous system), increase oral availability, increase solubility to allow administration by injection, alter metabolism and alter rate of excretion. […] In some embodiments, AS-7 or an active derivative thereof can be dissolved at 50 mM AS-7 in dimethylsulfoxide containing 5% Cremaphor® EL detergent (Sigma Aldrich) and diluted approximately one thousand fold in a physiologic salt solution such as saline containing albumin in the range of the albumin concentration of blood. Alternatively, nanoparticles containing AS-7 or an active derivative thereof are administered to the subject. Nanoparticles can be made by mixing human albumin at a 3-4% solution in a salt solution of the desired pH and ionic strength, subjecting the solution to elevated pressure and releasing the solution via a small jet. Nanoparticles of optimal size can be purified by differential centrifugation. […]

HeLa cells [5] = test: MTS cell viability of HeLa cells treated with anticancer drug with or without AS-7 (48 hours); type: cell-based, human; conditions: HeLa cells; 10 μM AS-7

N#Cc1cccc(C(C(=O)NCC(c2ccccc2)c2ccccc2)N(CCc2c[nH]cn2)C(=O)c2ccccc2C(=O)c2ccccc2)c1 (stereo not drawn) [AS-7]
shift of NLVS concentration dependence (HeLa cell viability) (HeLa cells [1]; 10 μM AS-7, 48 hours, MTS): markedly shifted the NLVS concentration dependence to the left
HeLa cell viability (HeLa cells [1]; AS-7 alone): no loss of cell viability
Dose Reduction Index (DRI), combination of AS-7 with bortezomib (HeLa cells [1]; HeLa cells, 12 nM bortezomib): 7.3
Dose Reduction Index (DRI), combination of AS-7 with bortezomib (HeLa cells [1]; HeLa cells, 16 nM bortezomib): 18
Dose Reduction Index (DRI), combination of AS-7 with bortezomib (HeLa cells [1]; HeLa cells, 20 nM bortezomib): 72
increase in potency of the cytotoxic action of bortezomib by AS-7 (HeLa cells [1]; HeLa cells, 10 μM AS-7): approximately 3.5 fold
potentiation of the cytotoxic action of bortezomib (loss of multiple myeloma cell viability) ([2]; 10 μM AS-7, 48 hours, MTS): markedly potentiates
increased potency of the cytotoxic action of bortezomib upon the addition of AS-7 ([2]; FIG. 2 as printed (multiple myeloma cells)): approximately 3.5 fold
potentiation of the cytotoxic action of bortezomib (loss of cell viability) [3]: markedly potentiates
increase in potency of the cytotoxic action of bortezomib by AS-7 (Melanoma A2620 cells): approximately three
potentiation of the cytotoxic action of bortezomib (T47D cells): markedly potentiated
potentiation of the cytotoxic action of bortezomib (159C cells): markedly potentiated
cell cycle distribution (FACS, propidium iodide) (breast T47D cells): evoked the accumulation
solubility in aqueous solutions [4]: limited solubility in aqueous solutions
increase in potency of the cytotoxic action of carfilzomib by AS-7 (HeLa cells [5]): approximately 3.5 fold

From patent US20150038541A1, “COMPOSITION AND METHODS FOR CELL MODULATION” (APOSIGNAL BIOSCIENCE LLC, priority 2012, published 2015)
